# Values joined by “and” are separate entries in the source; they are usually repeats but may differ in a detail not shown here. Equal entries are not always repeated. Active and inactive are the calls of the source.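 How the source made its calls: active means compounds giving half or more protection of infected cells from virus-caused growth loss, again on retest; inactive means the rest.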
# Tested on: CEM cells HIV-1 protection, formazan growth assay
# Experiment: NCI AIDS Antiviral Assay
# Details: for IC50: measured here: growth of uninfected CEM cells
# Procedure, shortened: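 Category rules: moderately active means at least 50% protection on retest, and confirmed active means 100% protection reproducibly. The underlying data came from a formazan growth assay in HIV-1-infected CEM cells.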
Structure (SMILES),EC50,IC50,outcome
CN1c2ccccc2N(C)C2C1N(C)c1ccccc1N2C (centres undefined),> 64.6 µM,11 µM,
CC(C)(C)c1cc(C2COC(=O)COCCOCC(=O)OCCOCCO2)cc(C(C)(C)C)c1O (centres undefined),> 200 µM,178 µM,
COC(=O)CSc1n[nH]c(-c2ccccc2)n1,> 1000 µM,372 µM,
O=S(=O)(Nc1cccc(F)c1)c1ccc(F)cc1,,,inactive
CC1CCCC(C)[N+]1=C(Nc1cccc(Cl)c1)c1ccccc1 (centres undefined),> 200 µM,105 µM,
CCOc1ccc2nc(NC(=O)CC(C)=O)sc2c1,> 200 µM,27.5 µM,
O=c1sc2ccccc2n1CC1CS1 (centres undefined),> 302 µM,11 µM,
CN1C(=O)C(O)C[C@@H]1c1ccc(F)cc1 (some centres undefined),,,inactive
CC(C)OC/N=C(/N)NC#N,> 575 µM,> 575 µM,
Cn1c(=O)nc2n(-c3cccc(F)c3)c3ccccc3nc-2c1=O,,,inactive
COc1cccc(N2C(=O)C3c4[nH]c5ccccc5c4C4CCCC4C3C2=O)c1 (centres undefined),> 200 µM,> 200 µM,
Cn1cnc2[nH]c(=O)n(OS(=O)(=O)c3ccccc3)c(=O)c21,> 195 µM,151 µM,
N#C/C(=C/n1c(=S)[nH]c2ccc([N+](=O)[O-])cc21)C(N)=O,> 200 µM,> 200 µM,
CC(C)N([PH2+]N(C(C)C)C(C)C)C(C)C.[C-]#[O+].[C-]#[O+].[C-]#[O+].[C-]#[O+].[C-]#[O+].[Mo],> 77.6 µM,> 77.6 µM,
CC1OC1C(=O)C1(O)C(C)C(O)C23OC2(C(O)c2c(O)cccc2C3=O)C1O (centres undefined),> 229 µM,0.229 µM,
CCOC(=O)CCc1cn2cc(Br)nc(OC)c2n1,> 200 µM,25.1 µM,
CCOC(=O)C1=C(O)c2ccc(C)cc2C(=O)C1=O,> 955 µM,324 µM,
O=C(O)C1=C(C(=O)O)C2CCC1C2,> 200 µM,> 200 µM,
CCc1c(Cc2ccccc2)n(COCCO[Si](C)(C)C(C)(C)C)c(=O)[nH]c1=O,> 34.7 µM,12.6 µM,
Clc1ccccc1C(n1cc(Br)cn1)n1cc(Br)cn1,,,inactive
Cc1cc(C)nc(NS(=O)(=O)c2ccc(NC(=O)c3cccn4c(=O)c5ccccc5nc34)cc2)n1,,,inactive
NC(=O)CCC(Nc1c2ccccc2nc2ccccc12)C(=O)O (centres undefined),,,inactive
CC1=CC(=C(c2ccc(N)cc2)c2ccc(N)cc2)C=CC1=N,,,inactive

Structure (SMILES),EC50,IC50,outcome
COc1cc(-c2ccc(NC(=O)SCCC(=O)O)cc2OC)ccc1NC(=O)SCCC(=O)O,,,inactive
Nc1ccc2[nH]c(C(=O)N3CC(CCl)c4c3cc(N)c3ccccc43)cc2c1 (centres undefined),> 0.2 µM,0.00417 µM,
Cn1c(O)c(N=O)c(=O)[nH]c1=O,> 200 µM,> 200 µM,
COc1ccc(-c2c(C(=O)O)oc3cc(O)ccc3c2=O)cc1OC,> 200 µM,> 200 µM,
Nc1nn2cc3c(nc2c1N=Nc1ccccc1)-c1ccccc1CC3,> 200 µM,> 200 µM,
N=C(N)SCc1ccc2nsnc2c1,> 309 µM,52.5 µM,
C1SCSCS1,> 200 µM,> 200 µM,
CCCCCCCCCCCCCCCCC(c1ccc(O)c(C(=O)O)c1)c1ccc(O)c(C(=O)O)c1,> 229 µM,91.2 µM,
COc1ccc(-c2nc(-c3cnccn3)n(COCCO)n2)cc1,> 200 µM,> 200 µM,
CN(O)C(=O)c1cccc(Cl)c1,> 200 µM,112 µM,
COc1ccc(-c2nc3c(nc2-c2ccc(OC)cc2)N(C)S(=O)(=O)N=C3N)cc1,> 200 µM,11.2 µM,
COC1=C(OC)CCC(/C(C#N)=C/c2ccc(OC)c(OC)c2)=C1,> 41.7 µM,21.4 µM,
NC(=O)CCC(NS(=O)(=O)c1ccc(NC(=O)c2ccccc2)cc1)C(=O)O (centres undefined),> 617 µM,> 617 µM,
COc1ccc(C(=O)C2COC(=O)C2=O)cc1OC (centres undefined),> 200 µM,> 200 µM,
Cc1cccc2c1N(C(=O)/C=C\C(=O)O)C(c1c(C)[nH]c3ccccc13)C2 (centres undefined),> 138 µM,75.9 µM,
COc1ccc(-c2oc3ccccc3c(=O)c2O)cc1OC,> 200 µM,138 µM,
CC(=O)/C(=C/N1C(=O)CC(=O)NC1=S)C(=O)Nc1ccccc1C,> 200 µM,178 µM,
CCOC(=O)c1c(C)nc(C)c(C(=O)OCC)c1-c1ccc(N(C)C)cc1,> 200 µM,53.7 µM,
O=C1Cc2c(-c3ccccc3)cc(-c3ccc(Cl)cc3)nc2-c2ccccc2N1,> 200 µM,93.3 µM,
OCc1ccc2c(c1)CC1(C2)Cc2cc3c(cc2C1)CCC3,> 200 µM,0.977 µM,
O=[N+]([O-])C(=C/c1cccc2ccccc12)/C(=C\c1cccc2ccccc12)[N+](=O)[O-],> 20 µM,9.12 µM,
C=C1CC(CC)(CCN2C(=O)c3ccccc3C2=O)OC1=O (centres undefined),> 209 µM,10.5 µM,
CC(C)(C)OC(=O)Nc1nnc(S(N)(=O)=O)s1,182 µM,> 200 µM,

Structure (SMILES),EC50,IC50,outcome
C=c1[nH]c(=O)c(=C)[nH]c1=O,> 72.4 µM,26.3 µM,
N#Cc1c(N)n(-c2nc3ccccc3s2)c(=O)c2cc([N+](=O)[O-])ccc12,> 100 µM,12 µM,
CCOC(=O)C1=C(Nc2ccc(Cl)c(Cl)c2)OC/C1=N\NC(=O)Cc1ccccc1,> 100 µM,> 100 µM,
COC(=O)Nc1cn2ccc(C(Cl)=C(Cl)Cl)cc2n1,> 30.9 µM,0.0331 µM,
COc1ccc([C@@H]2CC(=O)NCCCNCCCCNCCCN2)cc1,> 200 µM,123 µM,
NC(CS)=NCCc1nc2ccccc2[nH]1,> 200 µM,110 µM,
CC(=O)NCCCCCCNC(C)=O,> 1260 µM,> 1260 µM,
O=C(O)c1cc(N=C=S)ccc1-c1c2ccc(=O)cc-2oc2cc(O)ccc12,43.7 µM and 44.7 µM,316 µM and > 100 µM,
CCCCNC(=O)OCC(COc1ccccc1OC)OC(=O)NCCCC (centres undefined),> 66.1 µM,> 66.1 µM,
Cc1ccc(CC(Cc2ccc(C)cc2C(=O)O)C(=O)O)cc1 (centres undefined),> 200 µM,> 200 µM,
O=C(/C=C/C(=O)N/N=C/c1cc(S(=O)(=O)O)c2cccnc2c1O)N/N=C/c1cc(S(=O)(=O)O)c2cccnc2c1O,178 µM,> 200 µM,
Cn1c(=O)c2nc(N3CCCCC3)cnc2n(C)c1=O,> 200 µM,> 200 µM,
CSC1(C)CC2C(CC1N1CCOCC1)C2(C)C (centres undefined),> 95.5 µM,> 95.5 µM,
CC(C)(C)[Si](C)(C)OC1C(C/[N+]([O-])=N\Nc2ccc([N+](=O)[O-])cc2)OC(n2ccc(=O)[nH]c2=O)C1O[Si](C)(C)C(C)(C)C (centres undefined),> 200 µM,1.95 µM,
O=C(O)C1CCCCC1c1c2ccc(=O)c(O)c-2oc2c(O)c(O)ccc12 (centres undefined),17 µM,83.2 µM,
CC1Cn2c(=O)[nH]c3cccc(c32)NC1=O (centres undefined),> 200 µM,44.7 µM,
Cc1c(NC(=S)Nc2ccc(Cl)cc2)c(=O)n(-c2ccccc2)n1C,> 200 µM,> 200 µM,
CC(C)=CCC1=C(O)c2ccccc2C(=O)C1=O,,,inactive
O=C(C(=Cc1ccc(F)cc1)C(=O)c1ccccc1)c1ccccc1,> 110 µM,> 100 µM,
O=C(O)CCNCCCNCCC(=O)O,> 851 µM,> 851 µM,
CCC(C)COC(=O)c1ccc(N=Cc2ccc(C=Nc3ccc(C(=O)OCC(C)CC)cc3)cc2)cc1 (centres undefined),> 2.82 µM,> 2.82 µM,
Cc1cc(=O)c2cc3ccc4c5[nH]c(C)cc(=O)c5cc5ccc(c2[nH]1)c3c54,> 200 µM,33.9 µM,
O=C1Nc2nc3ccccc3n2N=C2CCCC12 (centres undefined),,,inactive

Structure (SMILES),EC50,IC50,outcome
COC1=C(N)C(=O)c2ncccc2C1=O,,,inactive
C(=C\c1ccc2ccccc2n1)/c1ccc2c(c1)OCO2,> 200 µM,> 200 µM,
c1ccc(CCN2CCc3[nH]c4ccccc4c3C2)cc1,> 200 µM,39.8 µM,
COc1cc(/C=C2\C(=O)N(c3cccc(Cl)c3)C(c3ccccc3)S2(=O)=O)cc(OC)c1OC (centres undefined),> 200 µM,112 µM,
CCOC(=O)/C(=C/c1ccc(OCc2ccccc2)cc1)P(=O)(OCC)OCC,> 44.7 µM,4.27 µM,
Cc1ccc(-c2cc(=O)c3cc(C)c(C)c(C(=O)O)c3o2)cc1[N+](=O)[O-],,,inactive
Cc1nn(C(=O)c2ccc(Cl)cc2)c2c1C(c1ccc(Cl)cc1)SC(N)=N2 (centres undefined),> 200 µM,36.3 µM,
O=C(O)C(CS)NCc1c2ccccc2nc2ccccc12 (centres undefined),,,inactive
O=c1c2ccccc2sc2cccc(NCCCN3CCN(CCCNc4cccc5sc6ccccc6c(=O)c45)CC3)c12,> 100 µM,> 100 µM,
CCSc1nc(=[N+]2CCCC2)ss1,,,inactive
CCCC1OC[C@H]2OC(n3cc(C)c(=O)[nH]c3=O)C[C@H]2N1O (some centres undefined),52.5 µM,> 200 µM,
Cc1cc(Cl)c(O)c(C(=O)C(=O)C(O)c2ccc3c(c2)OCO3)c1 (centres undefined),> 200 µM,2.45 µM,
COc1cc2c(cc1OC)C(C1(O)CCCCC1)NCC2 (centres undefined),> 851 µM,457 µM,
CCN(c1ccccc1)c1cc(=O)nc2ccccn12,> 200 µM,> 200 µM,
CCC(C)N(CCN)C(=O)c1cc2ccccc2c(-c2ccccc2Cl)n1 (centres undefined),,,inactive
c1ccc2c(c1)cc1n2CC2CN=NC12 (centres undefined),> 182 µM,> 182 µM,
O=[N+]([O-])c1ccc(C2ON=C(c3ccccc3)N2C23CC4CC(CC(C4)C2)C3)cc1 (centres undefined),> 200 µM,186 µM,
C=C(C)[C@@H]1CC[C@@]2(C)[C@H]1[C@H]1CCC3[C@@]4(C)CC[C@H](O)C(C)(C)[C@@H]4CC[C@@]3(C)[C@]1(C)C[C@@H]2O (some centres undefined),> 100 µM,66.1 µM,
O=c1/c(=N\Nc2ccccc2)c2cccc3ccc4cccc1c4c32,> 100 µM,> 100 µM,
CCNc1nc2c(=O)n(C)c(=O)n(C)c2s1,> 186 µM,> 186 µM,
CCOC(=O)Cn1c(=O)cc(C)c2ccccc21,> 200 µM,> 200 µM,
CCn1c(C)nn2c(=O)c3ccccc3nc2c1=O,> 100 µM,> 100 µM,
Nc1nc(SC2CCCCC2)nc2c1ncn2C1OC(CO)C(O)C1O (centres undefined),> 200 µM,138 µM,
